Experimental findings from the supplement of paper PMC10307832 are described below.

Common to all, as to assay: relative viability (nuclei count vs DMSO), 5 days (fraction); higher = more cells survive
Compound in the assay “SGI-1776 + OSI-027”: CN1CCC(CNc2ccc3ncc(-c4cccc(OC(F)(F)F)c4)n3n2)CC1 [SGI-1776] + COc1cccc2cc(-c3nc([C@H]4CC[C@H](C(=O)O)CC4)n4ncnc(N)c34)[nH]c12 [OSI-027] (partner 0.5 µM)
Summed up: (§1)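 Lung cancer cell lines in 1536-well plates were dosed by pin tool the day after seeding, either with one drug alone or with a fixed anchor-drug dose plus five library-drug doses (not always all listed) in √10 steps. After 5 days, cells were fixed and their nuclei stained in one step (final 0.05% Triton X-100, 1% formaldehyde, 1 ug/ml Hoechst), then counted on 4× images. Relative viability is the nuclei count in treated wells divided by that in vehicle wells. Values are medians of duplicate plates.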

Compound in assay [1]: C1COCCN1C2=NC(=NC3=C2OC4=C3C=CC=N4)C5=CC(=CC=C5)NC(=O)C6=CN=C(C=C6)N + Nc1ncn([C@H]2C[C@H](O)[C@@H](CO)O2)c(=O)n1 [Decitabine] (partner 2 µM)
Put shortly: as §1

Compound in assay [2]: C1COCCN1C2=NC(=NC3=C2OC4=C3C=CC=N4)C5=CC(=CC=C5)NC(=O)C6=CN=C(C=C6)N + CC(C)C[C@H](NC(=O)[C@H](Cc1ccccc1)NC(=O)c1cnccn1)B(O)O [Bortezomib] (partner 0.002 µM)
Put shortly:
as §1

Compound in assay [3]: C1COCCN1C2=NC(=NC3=C2OC4=C3C=CC=N4)C5=CC(=CC=C5)NC(=O)C6=CN=C(C=C6)N + CC(=O)c1c(C)c2cnc(Nc3ccc(N4CCNCC4)cn3)nc2n(C2CCCC2)c1=O [Palbociclib] (partner 0.5 µM)
Put shortly: as §1

For the cell line UMC-11, the relative viability with SGI-1776 + OSI-027 (first compound 0.08 µM) was determined as 0.493; with SGI-1776 + OSI-027 (first compound 0.8 µM) it was 0.466; with SGI-1776 + OSI-027 (first compound 2.53 µM) it was 0.396; with SGI-1776 + OSI-027 (first compound 8 µM), 0.278; in assay [1] (first compound 0.02 µM) it was 0.582; in assay [1] (first compound 0.06325 µM), 0.537. For the same cell line, the relative viability in assay [1] (first compound 0.2 µM) was 0.551; in assay [1] (first compound 0.6325 µM) it was 0.537; in assay [1] (first compound 2 µM), 0.573; in assay [2] (first compound 0.02 µM) it was 0.79; in assay [2] (first compound 0.06325 µM) it was 0.838; in assay [2] (first compound 0.2 µM) it was 0.669. Moreover, the relative viability in assay [2] (first compound 0.6325 µM) came to 1.08; in assay [2] (first compound 2 µM), 0.519; in assay [3] (first compound 0.02 µM) it was 0.347; in assay [3] (first compound 0.06325 µM), 0.327; in assay [3] (first compound 0.2 µM), 0.344; in assay [3] (first compound 0.6325 µM), 0.324. For the same cell line, the relative viability in assay [3] (first compound 2 µM) was 0.265.
